The text below walks through data of PMC10404678, “A recombinant technique for mapping functional sites of heterotrimeric collagen helices: Collagen IV CB3 fragment as a prototype for integrin binding” (The Journal of Biological Chemistry, 2023).

The structures appear in SMILES notation. pIC50: −log10 of the molar value.

Common to all, as to experiment: fluorescence polarization competition with fluorescent BOP probe
Common to all, as to assay type: binding

The target in test [1] is T1, integrin α10β1 ectodomain (Homo sapiens, UniProt O75578+P05556).
T1 construct: gene ITGA10; ectodomain heterodimer; continuous transcript alpha-GGGS-P2A-beta; alpha with ACID coil and C-terminal StrepII tag, beta with BASE coil and His tag; Expi293 cells; beta1 borders printed for the separate vector

The target in the next test is T2, integrin α1β1 ectodomain (Homo sapiens, UniProt P05556+P56199).
T2 construct: gene ITGA1; ectodomain heterodimer; alpha with ACID coil and C-terminal StrepII tag, beta with BASE coil and His tag; Expi293 cells, separate pcDNA3.4 vectors
T2 sequence (P56199 29-1143): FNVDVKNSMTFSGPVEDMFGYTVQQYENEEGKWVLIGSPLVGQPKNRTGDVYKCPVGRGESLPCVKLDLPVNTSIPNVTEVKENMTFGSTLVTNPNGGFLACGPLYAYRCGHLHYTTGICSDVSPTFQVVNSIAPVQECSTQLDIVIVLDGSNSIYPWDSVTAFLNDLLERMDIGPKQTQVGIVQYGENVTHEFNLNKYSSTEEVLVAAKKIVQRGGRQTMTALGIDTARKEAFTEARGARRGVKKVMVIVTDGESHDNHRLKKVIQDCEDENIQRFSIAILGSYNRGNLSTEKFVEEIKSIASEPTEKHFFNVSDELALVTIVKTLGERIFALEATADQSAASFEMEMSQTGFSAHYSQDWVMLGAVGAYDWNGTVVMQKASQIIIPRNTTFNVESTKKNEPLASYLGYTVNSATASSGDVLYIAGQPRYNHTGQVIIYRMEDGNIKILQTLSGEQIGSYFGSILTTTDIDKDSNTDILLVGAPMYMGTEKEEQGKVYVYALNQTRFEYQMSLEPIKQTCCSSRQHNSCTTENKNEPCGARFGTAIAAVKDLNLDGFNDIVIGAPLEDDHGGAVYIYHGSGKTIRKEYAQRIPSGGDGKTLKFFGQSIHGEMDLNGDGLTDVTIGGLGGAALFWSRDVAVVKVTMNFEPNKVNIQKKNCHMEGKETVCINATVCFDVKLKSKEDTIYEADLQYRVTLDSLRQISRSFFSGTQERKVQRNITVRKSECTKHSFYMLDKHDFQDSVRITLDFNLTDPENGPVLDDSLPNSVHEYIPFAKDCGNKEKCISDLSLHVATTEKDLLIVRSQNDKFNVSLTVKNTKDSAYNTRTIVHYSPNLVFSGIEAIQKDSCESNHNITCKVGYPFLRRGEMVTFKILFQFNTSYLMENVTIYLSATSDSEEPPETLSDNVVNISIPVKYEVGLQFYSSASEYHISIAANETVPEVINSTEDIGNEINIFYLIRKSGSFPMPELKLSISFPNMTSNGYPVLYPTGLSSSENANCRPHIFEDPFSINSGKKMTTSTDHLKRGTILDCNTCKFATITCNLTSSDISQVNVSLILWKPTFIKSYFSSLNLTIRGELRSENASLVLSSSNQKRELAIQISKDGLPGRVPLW
T2 sequence (P05556 21-728): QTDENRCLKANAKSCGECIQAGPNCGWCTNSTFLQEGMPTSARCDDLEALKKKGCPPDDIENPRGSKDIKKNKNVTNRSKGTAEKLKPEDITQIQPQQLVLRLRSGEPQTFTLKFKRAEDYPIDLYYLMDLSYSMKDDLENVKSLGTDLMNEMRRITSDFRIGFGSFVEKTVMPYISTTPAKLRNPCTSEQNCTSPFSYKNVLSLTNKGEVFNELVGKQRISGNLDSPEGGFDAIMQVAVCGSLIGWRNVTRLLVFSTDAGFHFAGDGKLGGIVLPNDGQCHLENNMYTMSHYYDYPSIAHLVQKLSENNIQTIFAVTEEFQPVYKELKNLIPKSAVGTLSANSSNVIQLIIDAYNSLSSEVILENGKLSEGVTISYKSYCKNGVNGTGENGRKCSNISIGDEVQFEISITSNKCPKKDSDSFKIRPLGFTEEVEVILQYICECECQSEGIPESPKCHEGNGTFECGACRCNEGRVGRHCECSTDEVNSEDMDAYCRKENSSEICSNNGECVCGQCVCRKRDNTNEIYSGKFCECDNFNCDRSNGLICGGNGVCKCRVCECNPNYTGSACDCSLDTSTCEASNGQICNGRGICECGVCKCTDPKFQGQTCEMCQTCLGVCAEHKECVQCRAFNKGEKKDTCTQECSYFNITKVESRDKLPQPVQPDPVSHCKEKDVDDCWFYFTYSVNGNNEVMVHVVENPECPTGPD

For the next test, the target named is T3, integrin α3β1 (Homo sapiens, UniProt P05556+P26006).
T3 construct: gene ITGA3; purchased recombinant heterodimer (R&D Systems), extracellular domains
T3 sequence (P26006 33-872 limits assumed): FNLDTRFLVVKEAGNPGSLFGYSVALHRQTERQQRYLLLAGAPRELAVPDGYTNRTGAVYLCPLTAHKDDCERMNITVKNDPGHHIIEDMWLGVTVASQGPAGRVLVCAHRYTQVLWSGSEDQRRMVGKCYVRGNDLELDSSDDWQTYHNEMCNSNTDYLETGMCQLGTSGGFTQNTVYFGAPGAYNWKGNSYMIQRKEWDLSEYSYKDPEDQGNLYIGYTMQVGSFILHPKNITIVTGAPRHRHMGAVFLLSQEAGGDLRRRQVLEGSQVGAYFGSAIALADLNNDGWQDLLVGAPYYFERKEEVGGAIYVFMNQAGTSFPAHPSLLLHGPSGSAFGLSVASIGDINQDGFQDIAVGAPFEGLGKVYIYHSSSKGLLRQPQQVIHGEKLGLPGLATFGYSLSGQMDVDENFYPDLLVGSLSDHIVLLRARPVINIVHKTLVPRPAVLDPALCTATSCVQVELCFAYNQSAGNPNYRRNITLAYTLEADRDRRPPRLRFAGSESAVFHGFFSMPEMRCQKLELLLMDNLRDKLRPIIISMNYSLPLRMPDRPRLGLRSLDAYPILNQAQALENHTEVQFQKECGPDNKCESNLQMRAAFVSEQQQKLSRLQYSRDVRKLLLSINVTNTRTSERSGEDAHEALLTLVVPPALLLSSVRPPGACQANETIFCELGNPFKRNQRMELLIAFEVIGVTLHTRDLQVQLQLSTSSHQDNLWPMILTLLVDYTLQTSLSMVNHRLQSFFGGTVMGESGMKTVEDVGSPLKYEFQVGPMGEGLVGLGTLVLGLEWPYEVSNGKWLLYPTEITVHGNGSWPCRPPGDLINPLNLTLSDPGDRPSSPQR
T3 sequence (P26006 876-991 limits assumed): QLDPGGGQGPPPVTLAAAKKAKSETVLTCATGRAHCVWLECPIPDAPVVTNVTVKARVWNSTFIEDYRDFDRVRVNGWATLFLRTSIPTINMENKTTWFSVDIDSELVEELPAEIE
T3 sequence (P05556 21-728 limits assumed): as the sequence (P05556 21-728) above

In test [2] the target is T4, integrin α11β1 ectodomain (Homo sapiens, UniProt P05556+Q9UKX5).
T4 construct: gene ITGA11; ectodomain heterodimer; continuous transcript alpha-GGGS-P2A-beta; alpha with ACID coil and C-terminal StrepII tag, beta with BASE coil and His tag; Expi293 cells; beta1 borders printed for the separate vector
T4 sequence (Q9UKX5 23-1139): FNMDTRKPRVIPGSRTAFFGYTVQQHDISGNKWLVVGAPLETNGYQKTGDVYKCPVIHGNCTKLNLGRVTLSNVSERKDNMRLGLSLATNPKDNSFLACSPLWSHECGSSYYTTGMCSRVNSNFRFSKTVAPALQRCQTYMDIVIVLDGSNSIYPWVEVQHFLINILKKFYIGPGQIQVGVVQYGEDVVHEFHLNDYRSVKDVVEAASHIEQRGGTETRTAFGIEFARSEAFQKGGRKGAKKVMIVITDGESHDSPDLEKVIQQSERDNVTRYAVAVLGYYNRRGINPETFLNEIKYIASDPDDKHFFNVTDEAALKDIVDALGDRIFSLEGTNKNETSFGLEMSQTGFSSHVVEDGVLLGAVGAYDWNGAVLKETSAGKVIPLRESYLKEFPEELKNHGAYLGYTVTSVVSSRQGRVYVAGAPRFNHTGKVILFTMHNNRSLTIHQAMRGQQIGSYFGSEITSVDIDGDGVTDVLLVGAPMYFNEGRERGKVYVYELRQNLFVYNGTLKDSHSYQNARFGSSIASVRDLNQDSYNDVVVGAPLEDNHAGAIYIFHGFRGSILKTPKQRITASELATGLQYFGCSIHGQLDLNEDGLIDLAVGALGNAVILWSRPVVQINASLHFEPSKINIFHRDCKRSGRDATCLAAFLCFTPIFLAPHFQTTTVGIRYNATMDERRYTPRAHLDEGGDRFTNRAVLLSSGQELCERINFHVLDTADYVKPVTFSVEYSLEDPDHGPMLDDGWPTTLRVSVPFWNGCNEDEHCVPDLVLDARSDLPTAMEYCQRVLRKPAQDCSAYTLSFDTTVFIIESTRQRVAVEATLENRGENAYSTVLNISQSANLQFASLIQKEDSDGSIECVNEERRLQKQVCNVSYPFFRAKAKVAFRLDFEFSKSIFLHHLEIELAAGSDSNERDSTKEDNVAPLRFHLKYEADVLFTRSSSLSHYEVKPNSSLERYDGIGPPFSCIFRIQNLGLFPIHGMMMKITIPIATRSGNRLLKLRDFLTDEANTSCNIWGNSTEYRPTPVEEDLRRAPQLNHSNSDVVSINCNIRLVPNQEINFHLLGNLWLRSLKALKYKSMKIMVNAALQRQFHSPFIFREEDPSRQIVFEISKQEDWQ
T4 sequence (P05556 21-728): as the sequence (P05556 21-728) above

A further test deals with T5, integrin α2β1 ectodomain (Homo sapiens, UniProt P05556+P17301).
T5 construct: gene ITGA2; ectodomain heterodimer; alpha with ACID coil and C-terminal StrepII tag, beta with BASE coil and His tag; Expi293 cells, separate pcDNA3.4 vectors

For `O=C(O)[C@H](Cc1ccc(OC(=O)N2CCCC2)cc1)NC(=O)[C@@H]1CCCN1S(=O)(=O)c1ccccc1` [BOP, N-(Benzenesulfonyl)-L-prolyl-L-O-(1-pyrrolidinylcarbonyl)tyrosine], the pIC50 in test [1] was 7.60; on integrin α1β1 ectodomain, 7.09; at integrin α3β1, 7.51; in test [2], 6.93; at integrin α2β1 ectodomain it was 7.79.
